In US9265755B2, “Stem cell administration to reduce TNF-α level in CSF of an autism spectrum disorder or pervasive development disorder patient” (priority 2009, dated 2016):
“Also recorded” adds a separate entry of the source.

Tests used:
[1] = test system: test subjects with autism spectrum condition; experiment: L-Carnosine in test subjects with autism spectrum condition (language, CARS); format: in vivo, human
autism spectrum subjects = experiment: Clinical improvement with lenalidomide outside of the study; format: in vivo, human; conditions: 2.5 to 10 mg; four subjects outside of the study
TNF-α = TNF-α levels in CSF and serum of autism spectrum patients treated with lenalinomide; format: in vivo, human
[2] = test system: patients diagnosed with an autism spectrum condition; experiment: Clinical language, social skills, CARS and EEG outcome in the lenalinomide study; format: in vivo, human
Interleukin-1β = experiment: Serum Interleukin-1β levels with lenalidomide outside of the study; format: in vivo, human; conditions: 2.5 to 10 mg; 2 subjects; 12 to 24 weeks of therapy
[3] = test system: patients with autistic regression and abnormal EEG; experiment: Thalidomide in patients with autistic regression and abnormal EEG
[4] = test system: patient with co-morbid autism condition and inflammatory colitis; experiment: Co-morbid autism condition in a single patient treated with infliximab; format: in vivo, human; conditions: in just days of treatment
Text: This patient regressed and became autistic […] with the onset of their inflammatory colitis condition becoming clinically obvious at a later date.

[5] = 2.5 mg per day, in 6 to 12 weeks, four patients with TNF-α CSF elevation over serum levels
[6] = after 4 to 12 weeks off the medication
[7] = 25 to 50 mg per day for 2 to 4 months, six patients

Compound: NCCC(=O)N[C@@H](Cc1cnc[nH]1)C(=O)O [L-Carnosine]
- language function, receptive one word vocabulary testing scores ([1]; 800 mg per day, after 6 and 12 weeks of treatment, compared to placebo): improvement
- CARS scores ([1]; 800 to 1000 mg, over 8 weeks): CARS scores improvement
- language ([1]; 800 to 1000 mg, over 8 weeks): language improvement

Compound: Nc1cccc2c1CN(C1CCC(=O)NC1=O)C2=O (stereo not shown) [Lenalinomide]
- clinical improvement (autism spectrum subjects): great clinical improvement
- levels of TNF-α in CSF (TNF-α; [5]): lowered levels
- levels of TNF-α in serum (TNF-α; [5]): lowered levels
- TNF-α levels in serum after withdrawal of the medication (TNF-α; [6]): increased
- CSF and serum ratios of TNF-α and other inflammatory cytokines (TNF-α; when TNF-α is elevated in an inflammatory response): lowering
- EEG in patients with abnormal EEG ([2]; 2.5 mg per day): showed improvement; also recorded: may have improved
- patients with elevated TNF-α levels in CSF and serum improved over baseline clinically ([2]; 2.5 mg per day (4/6 of completed study)): four out of four
- CGI rating scale for language expression ([2]; 2.5 mg per day, FIG. 2a): Improvement
- CGI rating scale for receptive language ([2]; 2.5 mg per day, FIG. 2b): Improvement
- CGI rating scale for social skills ([2]; 2.5 mg per day, FIG. 3): Improvement
- neuropsychological testing, receptive one-word test ([2]; 2.5 mg per day, FIG. 4a): Improvement
- neuropsychological testing, expressive one-word test ([2]; 2.5 mg per day, FIG. 4b): Improvement
- Childhood Autism Rating Scale Scores (CARS) ([2]; 2.5 mg per day, four patients): improved
- language skills ([2]; 2.5 mg per day, four patients): improved
- social skills ([2]; 2.5 mg per day, four patients): improved
- skills after withdrawal of the medication [2, 6]: regressed
- clinical state when medication was re-introduced ([2]; re-introduced at 2.5 to 5 mg per day, three patients): improved
- Interleukin-1β levels in serum (Interleukin-1β): lower

Compound: O=C1CCC(N2C(=O)c3ccccc3C2=O)C(=O)N1 (stereo not shown) [Thalidomide]
- EEG [3, 7]: improved
- clinical global improvement [3, 7]: clinical global improvement occurred
- clinical state of patients with autistic regression and abnormal EEG ([3]; patients who previously showed immune partial response to oral or injectable corticosteroids): improvement

Compound: Infliximab
- co-morbid autism condition [4]: improvement
